From patent publication US11780893B2, “Kv1.3 blockers” (Zealand Pharma A/S, priority 2019, dated 2023) come the findings set out here.

Where two headings read alike, the source gives them in different places. Bridge positions count the residues as written; N and C are the ends. Square brackets hold non-standard residues; d marks the D form. Peptide text beside a SMILES is read from it. Nle = CCCC[C@H](N)C(=O)O

Data set [1] addresses T1, human Kv1.3 voltage-gated K+ channel (Homo sapiens, UniProt P22001).
T1 construct: host or cells: CHO-DUKX
The data set is described as follows: cell-based. The conditions noted are these: inhibition of thallium flux, CHO-DUKX cells with human Kv1.3; read-out: IC50.

The next data set addresses T2, Kv1.1 (Homo sapiens, UniProt Q09470).
T2 construct: expressed in transfected cells; host or cells: Chinese Hamster Ovary (CHO)
Briefly: cell-based. The conditions noted are these: for IC50: CHO cells, whole-cell patch clamp, read-out: Potency IC50 (nM) Kv1.1; for Selectivity Kv1.1/Kv1.3: ratio IC50[Kv1.1]/IC50[Kv1.3]. In general terms: Patch clamp records ionic current or voltage across a cell membrane.

The target of another data set is T3, Kv1.2 (Homo sapiens, UniProt P16389).
T3 construct: expressed in transfected cells; host or cells: Chinese Hamster Ovary (CHO)
Briefly: cell-based. The conditions noted are these: CHO cells, whole-cell patch clamp; read-out: Potency IC50 (nM) Kv1.2.

The target in another data set is T4, Kv1.3 (Homo sapiens, UniProt P22001).
T4 construct: expressed in transfected cells; host or cells: Chinese Hamster Ovary (CHO)
Briefly: cell-based. The conditions noted are these: CHO cells, whole-cell patch clamp; read-out: Potency IC50 (nM) Kv1.3.

A further data set addresses T5, Kv1.6 (Homo sapiens, UniProt P17658).
T5 construct: expressed in transfected cells; host or cells: Chinese Hamster Ovary (CHO)
The data set is described as follows: cell-based. The conditions noted are these: for IC50: CHO cells, whole-cell patch clamp, read-out: Potency IC50 (nM) Kv1.6; for Selectivity Kv1.6/Kv1.3: ratio IC50[Kv1.6]/IC50[Kv1.3].

Another data set can be described thus: in vivo. The conditions noted are these: male, rat, sc, 70 nmol/kg.
Another data set concerns the target Rat whole blood (Rattus norvegicus, UniProt P15384).
Data set [2] relates to delayed-type hypersensitivity (DTH) ear swelling response. Type of data set: in vivo, rat. The conditions noted are these: Kv1.3 blocker 100 nmol/kg SC 24 hrs prior to KLH challenge, CsA 10 mg/kg per os.

In general, IC50 refers to the concentration needed to halve the response being measured. In general, AUC(0-inf) refers to the area under the concentration-time curve extrapolated to infinity. A word on the Cmax: it is the maximum level reached in the sampled fluid or tissue. As a reminder, the half-life is the time needed for the level to fall by half in the phase considered. A high value points to slow decline.

T2 sequence (Q09470 whole entry): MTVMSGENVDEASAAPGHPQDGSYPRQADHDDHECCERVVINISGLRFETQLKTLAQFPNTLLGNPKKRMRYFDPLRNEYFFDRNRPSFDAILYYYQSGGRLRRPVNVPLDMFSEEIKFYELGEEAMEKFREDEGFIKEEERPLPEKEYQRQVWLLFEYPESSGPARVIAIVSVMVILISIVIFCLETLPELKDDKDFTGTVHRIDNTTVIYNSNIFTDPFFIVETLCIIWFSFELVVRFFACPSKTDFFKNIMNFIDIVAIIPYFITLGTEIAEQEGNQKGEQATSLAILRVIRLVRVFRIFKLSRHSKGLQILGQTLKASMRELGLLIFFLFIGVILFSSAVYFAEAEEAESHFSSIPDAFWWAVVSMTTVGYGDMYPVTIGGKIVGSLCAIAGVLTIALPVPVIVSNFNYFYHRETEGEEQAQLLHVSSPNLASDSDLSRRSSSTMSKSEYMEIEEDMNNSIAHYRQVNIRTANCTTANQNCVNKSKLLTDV
T3 sequence (P16389 whole entry): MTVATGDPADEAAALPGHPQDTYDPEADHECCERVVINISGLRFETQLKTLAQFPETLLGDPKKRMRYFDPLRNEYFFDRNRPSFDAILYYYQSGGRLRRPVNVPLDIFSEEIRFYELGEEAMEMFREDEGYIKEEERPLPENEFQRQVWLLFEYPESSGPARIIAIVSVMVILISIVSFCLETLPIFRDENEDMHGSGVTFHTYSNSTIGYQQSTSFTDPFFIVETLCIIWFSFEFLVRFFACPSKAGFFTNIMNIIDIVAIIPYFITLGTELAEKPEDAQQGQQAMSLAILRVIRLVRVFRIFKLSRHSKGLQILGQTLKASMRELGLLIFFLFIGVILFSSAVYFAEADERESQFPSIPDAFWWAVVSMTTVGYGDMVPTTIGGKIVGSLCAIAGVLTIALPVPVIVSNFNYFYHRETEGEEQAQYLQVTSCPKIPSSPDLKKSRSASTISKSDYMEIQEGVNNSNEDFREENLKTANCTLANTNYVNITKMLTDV
T5 sequence (P17658 whole entry): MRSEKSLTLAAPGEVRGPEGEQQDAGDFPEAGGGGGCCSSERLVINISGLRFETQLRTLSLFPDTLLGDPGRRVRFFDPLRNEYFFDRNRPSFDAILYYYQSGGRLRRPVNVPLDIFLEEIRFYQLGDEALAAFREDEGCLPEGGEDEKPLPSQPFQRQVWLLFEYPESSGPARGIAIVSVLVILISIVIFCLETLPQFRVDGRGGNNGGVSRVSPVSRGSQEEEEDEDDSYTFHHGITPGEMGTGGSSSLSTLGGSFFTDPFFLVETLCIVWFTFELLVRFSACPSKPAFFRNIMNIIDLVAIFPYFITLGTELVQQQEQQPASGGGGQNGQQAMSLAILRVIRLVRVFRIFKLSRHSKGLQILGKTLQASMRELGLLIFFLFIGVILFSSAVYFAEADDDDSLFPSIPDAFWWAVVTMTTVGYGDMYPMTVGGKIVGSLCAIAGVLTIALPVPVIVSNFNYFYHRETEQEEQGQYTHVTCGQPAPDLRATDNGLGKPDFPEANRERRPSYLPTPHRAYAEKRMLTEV
T1 sequence (P22001 whole entry): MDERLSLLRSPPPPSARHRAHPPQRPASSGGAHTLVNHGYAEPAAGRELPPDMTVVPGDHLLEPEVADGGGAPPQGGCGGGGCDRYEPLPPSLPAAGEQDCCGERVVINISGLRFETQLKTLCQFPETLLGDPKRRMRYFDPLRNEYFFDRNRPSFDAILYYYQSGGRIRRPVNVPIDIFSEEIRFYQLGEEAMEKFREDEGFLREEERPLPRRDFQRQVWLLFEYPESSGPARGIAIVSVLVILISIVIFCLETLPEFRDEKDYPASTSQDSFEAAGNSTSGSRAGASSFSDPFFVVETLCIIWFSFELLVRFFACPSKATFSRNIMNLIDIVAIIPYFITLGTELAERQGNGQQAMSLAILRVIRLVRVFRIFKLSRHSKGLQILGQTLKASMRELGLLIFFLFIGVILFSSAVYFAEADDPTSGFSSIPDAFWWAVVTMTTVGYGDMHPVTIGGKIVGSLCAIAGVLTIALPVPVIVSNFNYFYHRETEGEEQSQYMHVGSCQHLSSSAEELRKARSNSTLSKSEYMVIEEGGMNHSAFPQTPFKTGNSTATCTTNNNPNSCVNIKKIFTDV
T4 sequence (P22001 whole entry): as above
Chain of Rat whole blood (P15384 whole entry): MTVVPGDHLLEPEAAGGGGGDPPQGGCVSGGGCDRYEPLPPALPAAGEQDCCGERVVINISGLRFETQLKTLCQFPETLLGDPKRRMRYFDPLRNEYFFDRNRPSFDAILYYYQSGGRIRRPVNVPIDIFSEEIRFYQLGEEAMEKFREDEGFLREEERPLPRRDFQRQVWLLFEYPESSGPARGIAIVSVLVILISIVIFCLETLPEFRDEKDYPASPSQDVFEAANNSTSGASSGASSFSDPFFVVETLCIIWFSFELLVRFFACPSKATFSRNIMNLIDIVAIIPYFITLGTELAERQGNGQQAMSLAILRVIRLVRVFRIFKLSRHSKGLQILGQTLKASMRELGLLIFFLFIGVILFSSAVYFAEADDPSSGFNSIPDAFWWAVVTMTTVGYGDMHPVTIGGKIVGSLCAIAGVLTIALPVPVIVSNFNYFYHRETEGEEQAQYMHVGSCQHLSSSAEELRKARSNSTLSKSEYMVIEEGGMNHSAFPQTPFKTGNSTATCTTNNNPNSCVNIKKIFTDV

Consider `CC[C@H](C)[C@@H]1NC(=O)[C@H](C)NC(=O)[C@H](CCCCN)NC(=O)[C@H](CC(C)C)NC(=O)[C@@H]2CSSC[C@@H](C(=O)N[C@@H](Cc3ccc(O)cc3)C(=O)N3CCC[C@H]3C(=O)N[C@@H](CCCNC(=N)N)C(=O)O)NC(=O)[C@H](CCCCN)NC(=O)[C@@H]3CSSC[C@H](NC(=O)[C@H](CCC(=O)O)NC(=O)[C@H](C(C)C)NC(=O)[C@H](CO)NC(=O)[C@H](C)NC(=O)[C@H](CO)NC(=O)[C@@H](NC(=O)[C@H](CCCNC(=N)N)NC(=O)[C@H](CCSC)NC(=O)[C@H](CC(=O)O)NC(=O)[C@@H](NC(=O)[C@@H](N)CC(N)=O)[C@@H](C)CC)CSSC[C@H](NC(=O)[C@H](CCCCN)NC(=O)CNC(=O)[C@H](Cc4ccccc4)NC(=O)[C@H]([C@@H](C)CC)NC(=O)[C@H](CO)NC(=O)CNC1=O)C(=O)N[C@@H](CCSC)C(=O)N[C@@H](CC(N)=O)C(=O)N[C@@H](CCCCN)C(=O)N[C@@H](CCCCN)C(=O)N3)C(=O)N[C@@H](CCCCN)C(=O)N[C@@H](CCC(N)=O)C(=O)N[C@@H](CCCCN)C(=O)N2` [Compound 8] (H-NIDMRCSASVECKQKCLKAIGSIFGKCMNKKCKCYPR-OH; disulfide 6-27, 12-32, 16-34), for which, in data set [1], the IC50 came to 0.47 nM. Also, at Kv1.1, the IC50 was more than 3000 nM and the “Selectivity Kv1.1/Kv1.3” value is more than 6800. In addition, on Kv1.2, the IC50 came to 376 nM. The IC50 on Kv1.3 worked out at 0.44 nM. Besides, on Kv1.6, the IC50 is more than 3000 nM and the “Selectivity Kv1.6/Kv1.3” value was more than 6800. In the data set “in vivo”, this molecule gave an AUC(0-inf) of 0.0983 µM·h, a Cmax of 76.9 nM and a half-life of 37.2 min.

For `CC[C@H](C)[C@@H]1NC(=O)[C@H](C)NC(=O)[C@H](CCCCN)NC(=O)[C@H](CC(C)C)NC(=O)[C@@H]2CSSC[C@@H](C(=O)N[C@@H](Cc3ccc(O)cc3)C(=O)N3CCC[C@H]3C(=O)N[C@@H](CCCNC(=N)N)C(N)=O)NC(=O)[C@H](CCCCN)NC(=O)[C@@H]3CSSC[C@H](NC(=O)[C@H](CCC(=O)O)NC(=O)[C@H](C(C)C)NC(=O)[C@H](CO)NC(=O)[C@H](C)NC(=O)[C@H](CO)NC(=O)[C@@H](NC(=O)[C@H](CCCNC(=N)N)NC(=O)[C@H](CCSC)NC(=O)[C@H](CC(=O)O)NC(=O)[C@H](CCSC)NC(=O)[C@@H](N)CC(N)=O)CSSC[C@H](NC(=O)[C@H](CCCCN)NC(=O)CNC(=O)[C@H](Cc4ccccc4)NC(=O)[C@H]([C@@H](C)CC)NC(=O)[C@H](CO)NC(=O)CNC1=O)C(=O)N[C@@H](CCSC)C(=O)N[C@@H](CC(N)=O)C(=O)N[C@@H](CCCCN)C(=O)N[C@@H](CCCCN)C(=O)N3)C(=O)N[C@@H](C)C(=O)N[C@@H](CCC(N)=O)C(=O)N[C@@H](CCCCN)C(=O)N2` [Compound 30] (H-NMDMRCSASVECAQKCLKAIGSIFGKCMNKKCKCYPR-NH2; disulfide 6-27, 12-32, 16-34), the IC50 in data set [1] is 0.09 nM; at Kv1.1 it was more than 3000 nM; on Kv1.2 it was 666 nM; on Kv1.3 it was 0.14 nM; at Kv1.6, more than 3000 nM; against Rat whole blood, not above 1 nM. Further, the “Selectivity Kv1.1/Kv1.3” value on Kv1.1 is on record as more than 22000. The “Selectivity Kv1.6/Kv1.3” value at Kv1.6 was more than 22000. The same molecule gave an AUC(0-inf) in “in vivo” of 0.0467 µM·h. This molecule showed a Cmax in the data set “in vivo” of 33.3 nM. The half-life in the data set “in vivo” was 44.4 min.

As to `CC[C@H](C)[C@@H]1NC(=O)[C@H](C)NC(=O)[C@H](Cc2ccc(O)cc2)NC(=O)[C@H](CC(C)C)NC(=O)[C@@H]2CSSC[C@@H](C(=O)N[C@@H](Cc3ccc(O)cc3)C(=O)N3CCC[C@H]3C(=O)N[C@@H](CCCNC(=N)N)C(N)=O)NC(=O)[C@H](CCCCN)NC(=O)[C@@H]3CSSC[C@H](NC(=O)[C@H](CCC(=O)O)NC(=O)[C@H](C(C)C)NC(=O)[C@H](CO)NC(=O)[C@H](C)NC(=O)[C@H](CO)NC(=O)[C@@H](NC(=O)[C@H](CCCNC(=N)N)NC(=O)[C@H](CCSC)NC(=O)[C@H](CC(=O)O)NC(=O)[C@H](CCSC)NC(=O)[C@@H](N)CC(N)=O)CSSC[C@H](NC(=O)[C@H](CCCCN)NC(=O)CNC(=O)[C@H](Cc4ccccc4)NC(=O)[C@H]([C@@H](C)CC)NC(=O)[C@H](CO)NC(=O)CNC1=O)C(=O)N[C@@H](CCSC)C(=O)N[C@@H](CC(N)=O)C(=O)N[C@@H](CCCCN)C(=O)N[C@@H](CCCCN)C(=O)N3)C(=O)N[C@@H](CCCCN)C(=O)N[C@@H](CCC(N)=O)C(=O)N[C@@H](CCCCN)C(=O)N2` [Compound 53] (H-NMDMRCSASVECKQKCLYAIGSIFGKCMNKKCKCYPR-NH2; disulfide 6-27, 12-32, 16-34), in data set [1], the IC50 came out at 0.12 nM. In addition, at Kv1.1, the IC50 is more than 3000 nM and the “Selectivity Kv1.1/Kv1.3” value was more than 10300. Also, the concentration for half-maximal inhibition (IC50) at Kv1.2 amounted to 149 nM. Moreover, the IC50 at Kv1.3 was 0.29 nM. Moreover, at Kv1.6, the IC50 was more than 3000 nM and the “Selectivity Kv1.6/Kv1.3” value is given as more than 10300. In “in vivo”, this molecule had an AUC(0-inf) of 0.0311 µM·h, a Cmax of 50 nM and a half-life of 52.2 min.

On to `CCCC[C@@H]1NC(=O)[C@@H]2CSSC[C@H](NC(=O)[C@H](CCCNC(=N)N)NC(=O)[C@H](CCCC)NC(=O)[C@H](CC(=O)O)NC(=O)[C@@H](NC(=O)[C@@H](N)CC(N)=O)[C@@H](C)CC)C(=O)N[C@@H](CO)C(=O)N[C@@H](C)C(=O)N[C@@H](CO)C(=O)N[C@@H](C(C)C)C(=O)N[C@@H](CCC(=O)O)C(=O)N[C@H]3CSSC[C@H](NC(=O)[C@H](CCCCN)NC(=O)[C@H](CCCCN)NC(=O)[C@H](CC(N)=O)NC1=O)C(=O)N[C@@H](CCCCN)C(=O)N[C@H](C(=O)N[C@@H](Cc1ccc(O)cc1)C(=O)N1CCC[C@H]1C(=O)N[C@@H](CCCNC(=N)N)C(=O)O)CSSC[C@H](NC(=O)[C@H](CCCCN)NC(=O)[C@H](CCC(N)=O)NC(=O)[C@H](CCCCN)NC3=O)C(=O)N[C@@H](CC(C)C)C(=O)N[C@@H](CCCCN)C(=O)N[C@@H](C)C(=O)N[C@@H]([C@@H](C)CC)C(=O)NCC(=O)N[C@@H](CO)C(=O)N[C@@H]([C@@H](C)CC)C(=O)N[C@@H](Cc1ccccc1)C(=O)NCC(=O)N[C@@H](CCCCN)C(=O)N2` [Compound 95] (H-NID[Nle]RCSASVECKQKCLKAIGSIFGKC[Nle]NKKCKCYPR-OH; disulfide 6-27, 12-32, 16-34), for which the IC50 in data set [1] was determined as 0.16 nM. Moreover, at Kv1.1, the IC50 is more than 3000 nM and the “Selectivity Kv1.1/Kv1.3” value was more than 11300. Further, the IC50 at Kv1.2 is 2060 nM. Besides, the half-inhibitory concentration (IC50) at Kv1.3 amounted to 0.27 nM. In addition, at Kv1.6, the concentration for half-maximal inhibition (IC50) is more than 3000 nM and the “Selectivity Kv1.6/Kv1.3” value is on record as more than 11300. Also, the “% inhibition of ear thickness (AUC of Δ ear thickness 0-48 hours)” value in data set [2] (Exp #5) is reported as 39.6%. In the data set “in vivo”, this molecule gave an AUC(0-inf) of 0.085 µM·h, a Cmax of 46.5 nM and a half-life of 65.4 min.

Take `CCCC[C@H](NC(=O)[C@@H]1CCCN1)C(=O)N[C@@H](CCC(=O)O)C(=O)N[C@@H](CCCC)C(=O)N[C@@H](CCCNC(=N)N)C(=O)N[C@H]1CSSC[C@@H]2NC(=O)[C@H](CCCCN)NC(=O)CNC(=O)[C@H](Cc3ccccc3)NC(=O)[C@H]([C@@H](C)CC)NC(=O)[C@H](CO)NC(=O)CNC(=O)[C@H]([C@@H](C)CC)NC(=O)[C@H](C)NC(=O)[C@H](C)NC(=O)[C@H](CC(C)C)NC(=O)[C@@H]3CSSC[C@@H](C(=O)N[C@@H](Cc4ccc(O)cc4)C(=O)N4CCC[C@H]4C(=O)N[C@@H](CCCNC(=N)N)C(=O)O)NC(=O)[C@H](CCCCN)NC(=O)[C@H](CSSC[C@H](NC(=O)[C@H](CCC(=O)O)NC(=O)[C@H](C(C)C)NC(=O)[C@H](CO)NC(=O)[C@H](C)NC(=O)[C@H](CO)NC1=O)C(=O)N[C@@H](C)C(=O)N[C@@H](CCC(N)=O)C(=O)N[C@@H](CCCCN)C(=O)N3)NC(=O)[C@H](CCCCN)NC(=O)[C@H](CCCCN)NC(=O)[C@H](CC(N)=O)NC(=O)[C@H](CCCC)NC2=O` [Compound 103] (H-P[Nle]E[Nle]RCSASVECAQKCLAAIGSIFGKC[Nle]NKKCKCYPR-OH; disulfide 6-27, 12-32, 16-34): the IC50 is 0.38 nM in data set [1]; more than 3000 nM on Kv1.1; more than 3000 nM at Kv1.2; 0.55 nM on Kv1.3; more than 3000 nM on Kv1.6. Also, the “Selectivity Kv1.1/Kv1.3” value at Kv1.1 is on record as more than 5500. The “Selectivity Kv1.6/Kv1.3” value at Kv1.6 is given as more than 5500. In data set [2] (Exp #7), the “% inhibition of ear thickness (AUC of Δ ear thickness 0-48 hours)” value is given as 48.9%. In the data set “in vivo”, this molecule displayed an AUC(0-inf) of 0.177 µM·h. Besides, in the data set “in vivo”, the Cmax was determined as 68.4 nM. This molecule showed a half-life in “in vivo” of 81.6 min.
